Test results from US9751919B2, “Antimicrobial compositions comprising a hyaluronic acid binding peptide and a β-lactam antibiotic” (priority 2012, dated 2017).
Several values for one entry are separate records, joined by “and”; a condition that tells them apart may be missing. Equal values may be shown once. Entries after “also recorded” stand apart in the source; their conditions may differ.

Tests used:
HA-MRSA [1] = experiment: MIC (CLSI broth dilution), agent alone; assay type: cell-based, Staphylococcus aureus; conditions: agent alone
Experimental: (§1) VISA (strains 92, 95 and 96), VRSA (strains 105 and 106) and E. coli (strain 69717) isolates were also tested. One MSSA was used as a control. All MICs were assessed using CLSI guidelines. Also assessed was the activity of cefazolin, ceftriazone, meropenem, and a piperacillin/tazobactam combination antibiotic. Minimum inhibitory concentration (MIC) is the lowest concentration of an antimicrobial that will inhibit the visible growth of a microorganism after incubation.
(§2) Antimicrobial Susceptibility Testing: A custom designed panel of antimicrobials was created. […] These agents were obtained as laboratory grade powders from their respective manufacturers. Stock solutions were prepared and dilutions made as described by the Clinical Laboratory Standards Institute (2005 CLSI). Following two subcultures from frozen stock the MICs of the antimicrobial agents for the isolates were determined by the CLSI 2005 approved broth macrodilution method. Briefly, test tubes containing doubling antibiotic dilutions (2 ml per tube) of cation adjusted Mueller-Hinton broth (eg. for Enterobacteriaceae) with or without lysed horse blood (2-5% V/V) [eg. for S. pneumoniae] were inoculated to achieve a final concentration of approximately 5×10^5 CFU/ml and incubated in ambient air for 24 hours prior to reading. Colony counts were performed periodically to confirm inocula. Quality control was performed every two weeks using a variety of ATCC QC organisms including; S. aureus 29213, E. faecalis 29212, E. coli 25922 and P. aeruginosa 27853.
(§3) One MSSA was used as a control. All MICs were assessed using CLSI guidelines.
(§4) One MS SA and ATCC reference strains were used as controls. All MICs were assessed using CLSI guidelines.

MSSA = experiment: MIC (CLSI broth dilution), agent alone; assay type: cell-based, Staphylococcus aureus; conditions: MSSA 79333, agent alone
Experimental: as §1, §2, §3, §4

CA-MRSA [2] = experiment: MIC (CLSI broth dilution), agent alone; assay type: cell-based, Staphylococcus aureus; conditions: agent alone
Experimental: as §1, §2, §3, §4

[3] = test system: MRSA, VISA, VRSA and E. coli; experiment: Checkerboard assay, panel statement; assay type: cell-based; conditions: with β-lactams versus MRSA, VISA, VRSA and E. coli
Experimental: Checkerboard assays were carried out as described by Bonapace et al.
Diagnostic Microbiology and Infectious Diseases 2002; 44:363-366. In brief, checkerboard assays were performed in 96 well microtitre trays using an 8-by-8 well configuration. […] 96-well custom designed microtitre plates contained 100 ul/well of cation adjusted Mueller-Hinton broth (eg. for Enterobacteriaceae) with or without lysed horse blood (2-5% V/V) [eg. for S. pneumoniae] and were inoculated to achieve a final concentration of approximately 5×10^5 CFU/ml and incubated in ambient air for 24 hours prior to reading. Colony counts were performed periodically to confirm inocula. Quality control was performed every two weeks using a variety of ATCC QC organisms including; S. pneumoniae 49619, S. aureus 29213, E. faecalis 29212, E. coli 25922 and P. aeruginosa 27853. […] All peptides were assessed for synergy with β-lactams and vancomycin. For all antimicrobials as well as the peptides, CLSI criteria were used.
The fractional inhibitory concentration index (FIC index) was used to interpret synergy, antagonism or additivity/indifference. FIC index=FIC of drug A+FIC of drug B where:
The FIC of drug A and drug B was calculated as follows, FIC drug A=MIC of drug A in combination/MIC of drug A alone and FIC of drug B=MIC of drug B in combination/MIC of drug B alone. Synergy was defined as FIC index ≦0.5, additivity/indifference defined as a FIC between 0.5 and 4 and antagonism defined as an FIC index >4.
The fractional inhibitory concentration index (FIC index) was used to interpret synergy, antagonism or additivity/indifference. FIC index=FIC of drug A+FIC of drug B where the FIC of drug A and drug B was calculated as follows, FIC drug A=MIC of drug A in combination/MIC of drug A alone and FIC of drug B=MIC of drug B in combination/MIC of drug B alone. Synergy was defined as FIC index ≦0.5, additivity/indifference defined as an FIC of between 0.5 and 4 and antagonism defined as an FIC index >4.

HA-MRSA [4] = experiment: Antibiotic MIC with fixed concentration of peptide; assay type: cell-based, Staphylococcus aureus; conditions: HA-MRSA strains; Table 13
Experimental: as §3, §4

CA-MRSA [5] = experiment: Antibiotic MIC with fixed concentration of peptide; assay type: cell-based, Staphylococcus aureus; conditions: versus CA-MRSA; Table 13
Experimental: as §3, §4

E. coli = experiment: MIC (CLSI broth dilution), agent alone; assay type: cell-based, Escherichia coli; conditions: agent alone
Experimental: as §1
(§5) Antimicrobial Susceptibility Testing: A custom designed panel of antimicrobials was created. The panel included: PEP35, penicillin, piperacillin/tazobactam, cefazolin, ceftriaxone, meropenem, clarithromycin, clindamycin, gentamicin, amikacin, vancomycin, ciprofloxacin, levofloxacin, moxifloxacin, linezolid, trimethoprim/sulfamethoxazole and doxycycline. These agents were obtained as laboratory grade powders from their respective manufacturers. Stock solutions were prepared and dilutions made as described by the Clinical Laboratory Standards Institute (2005 CLSI). Following two subcultures from frozen stock the MICs of the antimicrobial agents for the isolates were determined by the CLSI 2005 approved broth macrodilution method. Briefly, test tubes containing doubling antibiotic dilutions (2 ml per tube) of cation adjusted Mueller-Hinton broth (eg. for Enterobacteriaceae) with or without lysed horse blood (2-5% V/V) [eg. for S. pneumoniae] were inoculated to achieve a final concentration of approximately 5×10^5 CFU/ml and incubated in ambient air for 24 hours prior to reading. Colony counts were performed periodically to confirm inocula. Quality control was performed every two weeks using a variety of ATCC QC organisms including; S. aureus 29213, E. faecalis 29212, E. coli 25922 and P. aeruginosa 27853. For all antimicrobials as well as PEP35, CLSI criteria were used.
as §4

VRSA [6] = experiment: MIC (CLSI broth dilution), agent alone; assay type: cell-based, Staphylococcus aureus; design: unit not given beside the values
Experimental: as §1, §5, §3

[7] = test system: MRSA, VISA, VRSA and E. coli; experiment: MIC, agent alone, panel statement; assay type: cell-based; conditions: versus MRSA, VISA, VRSA and E. coli
Experimental: as §1, §5

VRSA [8] = experiment: Antibiotic MIC with fixed concentration of peptide; assay type: cell-based, Staphylococcus aureus; conditions: VISA and VRSA; Table 13
Experimental: as §3

VISA = experiment: MIC (CLSI broth dilution), agent alone; assay type: cell-based, Staphylococcus aureus; design: unit: µg/mL
Experimental: as §1, §5, §3

Question: What does the source list for “LKQKIKHVVKLKVVVKLRSQLAKKKQS (hybPEP35-1 conservative substitution human peptide variant) [human peptide variant of PEP35 with conservative substitutions]”?
Answer: MIC (HA-MRSA [1]; HA-MRSA 70798 (USA100/800), in µg/mL): > 2048 and 1024; MIC (HA-MRSA [1]; HA-MRSA 77090 (USA100/800), in µg/mL): 1024 and 512; MIC (HA-MRSA [1]; HA-MRSA 77098 (USA100/800)): ≧2048/2048^; MIC (MSSA): 128/128; MIC (MSSA; in µg/mL): 256; MIC (CA-MRSA [2]; CA-MRSA 69615 (USA400)): 1024/1024; MIC (CA-MRSA [2]; CA-MRSA 70857 (USA400)): 1024/1024; synergistic activity (in words) [3]: synergistic activity; synergy with β-lactams (in words) (HA-MRSA [4]): weak synergy; also recorded: stronger synergy; synergy with β-lactams (in words) (CA-MRSA [5]): Strong synergy; MIC (E. coli; E. coli 69716, listed as hybPEP35-1, in µg/mL): 64; MIC (E. coli; E. coli 69716, listed as hybPEP35, in µg/mL): 128 and 64; MIC (E. coli; E. coli 70752): 64/64; MIC (E. coli; E. coli 70752, in µg/mL): 32; MIC (VRSA [6]; VRSA 105): 128/128; MIC (VRSA [6]; VRSA 105, in µg/mL): 256 and 128; MIC (VRSA [6]; VRSA 106, in µg/mL): 256; MIC (VRSA [6]; VRSA 106, listed as hybPEP35, in µg/mL): 128 and 256; activity (in words) [7]: no activity; also recorded: not active; synergy with β-lactams (in words) (VRSA [8]): mild to strong; MIC (VISA; VISA 92): >2048/>2048; MIC (VISA; VISA 95): >2048/2048; MIC (VISA; VISA 96, in µg/mL): 1024; MIC (VISA; VISA 96, listed as hybPEP35, in µg/mL): 1024 and 2048
